Experimental data published in patent publication US20240287138A1, “CYCLIC PEPTIDES FOR INHIBITING TNF RECEPTOR 1 ACTIVITY” (Merck Sharp & Dohme LLC, priority 2023, published 2024).
Numbered stars: 1 amine (or outer) side, 2 acyl side, 3 side chain; on linkers, the order of the positions; unused ones are H or OH. Bridge positions count the residues as written; N and C are the ends. Square brackets hold non-standard residues; d marks the D form. Peptide text beside a SMILES is read from it. Trp(βS-Me,7-OMe) = COc1cccc2c([C@H](C)[C@H](N)C(=O)O)c[nH]c12; X5 = COc1cccc2[nH]cc([C@H](C)[C@H](N[*:1])C(=O)[*:2])c12; Phe(4-CH2COOH) = N[C@@H](Cc1ccc(CC(=O)O)cc1)C(=O)O; Trp(7-CN) = N#Cc1cccc2c(C[C@H](N)C(=O)O)c[nH]c12; Trp(7-Cl) = N[C@@H](Cc1c[nH]c2c(Cl)cccc12)C(=O)O; Phe(3-CONH2) = NC(=O)c1cccc(C[C@H](N)C(=O)O)c1; Phe(4-CONH2) = NC(=O)c1ccc(C[C@H](N)C(=O)O)cc1; Phe(4-COOH) = N[C@@H](Cc1ccc(C(=O)O)cc1)C(=O)O; Trp(7-aza) = N[C@@H](Cc1c[nH]c2ncccc12)C(=O)O; Phe(4-CH2NH2) = NCc1ccc(C[C@H](N)C(=O)O)cc1; Pip(5R-OH) = O=C(O)[C@@H]1CC[C@@H](O)CN1; αMeW = C[C@](N)(Cc1c[nH]c2ccccc12)C(=O)O; X1 = O=C([C@@H]1CC[C@H](N[*:1])C1)[*:2]; Pip(4-aza) = O=C(O)[C@@H]1CNCCN1; 4Pal = N[C@@H](Cc1ccncc1)C(=O)O; NMeE = CN[C@@H](CCC(=O)O)C(=O)O; dHyp = O=C(O)[C@H]1C[C@H](O)CN1; Ahp(2) = CCCCC[C@H](N)C(=O)O; NMeS = CN[C@@H](CO)C(=O)O; Pip = O=C(O)[C@@H]1CCCCN1; αMeS = C[C@](N)(CO)C(=O)O; Nle = CCCC[C@H](N)C(=O)O; Sar = CNCC(=O)O

Tests used:
[1] = target: T1, human soluble TNFR1 (sTNFR1) (Homo sapiens, UniProt P19438); assay: Human sTNFR1-peptide displacement assay (LanthaScreen Eu TR-FRET binding assay)
T1 construct: made in house; host or cells: Sf21 (baculovirus)
T1 sequence (P19438 with tags, fused parts or gaps): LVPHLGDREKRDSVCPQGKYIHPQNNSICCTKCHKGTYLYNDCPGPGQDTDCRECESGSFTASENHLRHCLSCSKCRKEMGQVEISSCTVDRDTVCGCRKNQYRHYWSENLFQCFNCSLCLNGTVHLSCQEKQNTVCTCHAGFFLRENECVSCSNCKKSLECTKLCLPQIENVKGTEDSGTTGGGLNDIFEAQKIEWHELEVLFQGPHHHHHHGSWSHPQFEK
Method in brief: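 Readout is the 665/615 nm TR-FRET ratio (Eu anti-His donor, streptavidin-Alexa647 acceptor), normalized to DMSO and saturating displacer, fit by Morrison-based five-parameter logistic for Kd^app. His-tagged sTNFR1 (1-211) prebound to 100 nM biotinylated peptide SEQ ID NO.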

human TNFR2 ECD protein = target: T2, human TNFR2 ECD protein (Homo sapiens, UniProt P20333); assay: SPR off-target binding (selectivity) to human TNFR2 ECD
T2 construct: HRV 3C protease cleavage site (C); 6His (C, cleaved yes); made in house; host or cells: Sf21 insect cells (baculovirus), secreted
T2 sequence (P20333 23-257): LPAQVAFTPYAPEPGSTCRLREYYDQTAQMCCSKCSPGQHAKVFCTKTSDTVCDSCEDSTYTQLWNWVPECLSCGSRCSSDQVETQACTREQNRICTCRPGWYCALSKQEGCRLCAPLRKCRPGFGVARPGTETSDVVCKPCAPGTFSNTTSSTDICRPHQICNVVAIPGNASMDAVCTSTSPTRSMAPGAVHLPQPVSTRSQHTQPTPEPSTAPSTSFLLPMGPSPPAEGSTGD
Method in brief: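 Insect-cell human receptor ECDs, enzymatically biotinylated, immobilized via streptavidin capture chip. Peptide binding and dissociation measured in RU in pH 7.4 HEPES buffer containing 2% DMSO; chip regenerated per analyte. Rate constants give affinity.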

For CCCC[C@@H]1NC(=O)[C@@H]2CC[C@@H](C2)NC(=O)[C@H]([C@@H](C)c2c[nH]c3c(OC)cccc23)NC(=O)CN(C)C(=O)[C@H](Cc2ccc(C(N)=O)cc2)NC(=O)[C@H](Cc2ccc(C(N)=O)cc2)NC(=O)[C@](C)(CO)NC(=O)[C@H](Cc2c[nH]c3c(Cl)cccc23)NC(=O)[C@H](Cc2ccncc2)NC(=O)[C@H](CC(N)=O)NC(=O)[C@H](CCC(=O)O)N(C)C(=O)[C@H](Cc2c[nH]c3ncccc23)NC(=O)[C@@H]2CC[C@@H](O)CN2C(=O)[C@H](Cc2ccncc2)NC1=O [SEQ ID NO. 189] (cyclo([4Pal][Trp(7-Cl)][αMeS][Phe(4-CONH2)][Phe(4-CONH2)][Sar][Trp(βS-Me,7-OMe)][X1][Nle][4Pal][Pip(5R-OH)][Trp(7-aza)][NMeE]N)), the Kd [1] was 0.01 nM and the Kd (human TNFR2 ECD protein) was greater than 1000 nM.
With CCCCC[C@@H]1NC(=O)[C@@H]2CC[C@@H](C2)NC(=O)[C@H]([C@@H](C)c2c[nH]c3c(OC)cccc23)NC(=O)CN(C)C(=O)[C@H](Cc2ccc(OC)cc2)NC(=O)[C@H](Cc2ccc(C(N)=O)cc2)NC(=O)[C@](C)(CO)NC(=O)[C@H](Cc2c[nH]c3c(C#N)cccc23)NC(=O)[C@H](Cc2ccncc2)NC(=O)[C@H](CC(N)=O)NC(=O)[C@H]2C[C@H](O)CN2C(=O)[C@H](Cc2c[nH]c3ccccc23)NC(=O)[C@@H]2CNCCN2C(=O)[C@H](Cc2ccncc2)NC1=O [SEQ ID NO. 200] (cyclo([4Pal][Trp(7-CN)][αMeS][Phe(4-CONH2)]Y(Me)[Sar][Trp(βS-Me,7-OMe)][X1][Ahp(2)][4Pal][Pip(4-aza)]W[dHyp]N)) the Kd [1] was 0.09 nM and the Kd (human TNFR2 ECD protein) was greater than 1000 nM.
CCCC[C@@H]1NC(=O)CSC[C@@H](C(N)=O)NC(=O)[C@H]([C@@H](C)c2c[nH]c3c(OC)cccc23)NC(=O)CN(C)C(=O)[C@H](Cc2ccc(O)cc2)NC(=O)[C@H](Cc2ccc(C(=O)O)cc2)NC(=O)[C@](C)(CO)NC(=O)[C@H](Cc2c[nH]c3c(Cl)cccc23)NC(=O)[C@H](Cc2ccncc2)NC(=O)[C@H](CC(N)=O)NC(=O)[C@H]2CCCN2C(=O)[C@H](Cc2c[nH]c3ccccc23)NC(=O)[C@@H]2CC[C@@H](O)CN2C(=O)[C@H](Cc2ccncc2)NC1=O [SEQ ID NO. 203] ({CH2CO}-[Nle][4Pal][Pip(5R-OH)]W[dP]N[4Pal][Trp(7-Cl)][αMeS][Phe(4-COOH)]Y[Sar][Trp(βS-Me,7-OMe)]C-NH2; thioether N-14) showed a Kd [1] of 0.31 nM and a Kd (human TNFR2 ECD protein) greater than 1000 nM.
With CCCC[C@@H]1NC(=O)CSC[C@@H](C(N)=O)NC(=O)[C@](C)(Cc2c[nH]c3ccccc23)NC(=O)CN(C)C(=O)[C@H](Cc2ccc(O)cc2)NC(=O)[C@H](Cc2cccc(C(N)=O)c2)NC(=O)[C@](C)(CO)NC(=O)[C@H](Cc2c[nH]c3c(Cl)cccc23)NC(=O)[C@H](Cc2ccncc2)NC(=O)[C@H](CC(N)=O)NC(=O)[C@H](CCC(=O)O)N(C)C(=O)[C@H](Cc2c[nH]c3ncccc23)NC(=O)[C@H](CO)NC(=O)[C@H](Cc2ccc(CN)cc2)NC1=O [SEQ ID NO. 205] ({CH2CO}-[Nle][Phe(4-CH2NH2)]S[Trp(7-aza)][NMeE]N[4Pal][Trp(7-Cl)][αMeS][Phe(3-CONH2)]Y[Sar][αMeW]C-NH2; thioether N-14) the Kd [1] was 1.01 nM and the Kd (human TNFR2 ECD protein) was greater than 1000 nM.
CCCC[C@@H]1NC(=O)CSC[C@@H](C(N)=O)NC(=O)[C@H]([C@@H](C)c2c[nH]c3cccc(OC)c23)NC(=O)CN(C)C(=O)[C@H](Cc2ccc(O)cc2)NC(=O)[C@H](Cc2ccc(C(N)=O)cc2)NC(=O)[C@](C)(CO)NC(=O)[C@H](Cc2c[nH]c3c(Cl)cccc23)NC(=O)[C@H](Cc2ccc(C(=O)O)cc2)NC(=O)[C@H](CC(N)=O)NC(=O)[C@H](CCC(=O)O)N(C)C(=O)[C@H](Cc2c[nH]c3ncccc23)NC(=O)[C@H](CO)N(C)C(=O)[C@H](Cc2ccncc2)NC1=O [SEQ ID NO. 209] ({CH2CO}-[Nle][4Pal][NMeS][Trp(7-aza)][NMeE]N[Phe(4-COOH)][Trp(7-Cl)][αMeS][Phe(4-CONH2)]Y[Sar][X5]C-NH2; thioether N-14) showed an IC50 [1] of 0.6 nM, a Kd [1] of 0.67 nM and a Kd (human TNFR2 ECD protein) greater than 1000 nM.
With CCCC[C@@H]1NC(=O)CSC[C@@H](C(N)=O)NC(=O)[C@H]([C@@H](C)c2c[nH]c3c(OC)cccc23)NC(=O)CN(C)C(=O)[C@H](Cc2ccc(O)cc2)NC(=O)[C@H](Cc2ccc(C(=O)O)cc2)NC(=O)[C@](C)(CO)NC(=O)[C@H](Cc2c[nH]c3c(Cl)cccc23)NC(=O)[C@H](Cc2ccc(CC(=O)O)cc2)NC(=O)[C@H](CC(N)=O)NC(=O)[C@H](CCC(=O)O)N(C)C(=O)[C@H](Cc2c[nH]c3ccccc23)NC(=O)[C@@H]2CCCCN2C(=O)[C@H](Cc2ccncc2)NC1=O [SEQ ID NO. 212] ({CH2CO}-[Nle][4Pal][Pip]W[NMeE]N[Phe(4-CH2COOH)][Trp(7-Cl)][αMeS][Phe(4-COOH)]Y[Sar][Trp(βS-Me,7-OMe)]C-NH2; thioether N-14) the IC50 [1] was 0.9 nM, the Kd [1] was 0.73 nM and the Kd (human TNFR2 ECD protein) was greater than 1000 nM.
